# Source: PMC3009740 (PLoS ONE, 2010)
# Where a chain is given by its changes, count along the chain named. Read-outs that look alike come from different tables or passages of the source.
# How the values were obtained:
# [1] = tested on: CHO hM1 cells; assay: Protein content (method of Bradford) of CHO hM1 cells after pretreatment; assay type: cell-based, Chinese hamster
# Description: In order to account for these variances, the method of Bradford was used to quantify changes in protein content in CHO hM1 cells. […] This is in contrast to the complete inhibition of binding observed prior to prolonged waiting.
# [2] = target: T1, human M1 muscarinic acetylcholine receptor (Homo sapiens, UniProt P11229); assay: cell-based
# T1 sequence (P11229 1-460): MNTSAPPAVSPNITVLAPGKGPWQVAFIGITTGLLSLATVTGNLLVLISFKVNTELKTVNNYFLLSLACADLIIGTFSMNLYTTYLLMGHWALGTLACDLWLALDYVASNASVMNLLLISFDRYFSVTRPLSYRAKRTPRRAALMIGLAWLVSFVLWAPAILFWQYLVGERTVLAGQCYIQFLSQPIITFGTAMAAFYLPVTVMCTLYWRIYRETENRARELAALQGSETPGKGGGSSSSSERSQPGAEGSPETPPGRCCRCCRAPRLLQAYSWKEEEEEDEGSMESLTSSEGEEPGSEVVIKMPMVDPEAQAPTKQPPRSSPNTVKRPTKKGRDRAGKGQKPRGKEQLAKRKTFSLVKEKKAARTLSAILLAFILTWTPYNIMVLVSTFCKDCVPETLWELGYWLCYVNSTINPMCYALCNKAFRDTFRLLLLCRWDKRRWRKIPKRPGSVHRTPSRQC
# Protocol: (§1) Labeled cells were harvested by trypsinization, centrifuged, and washed three times in HEPES buffer to remove unincorporated myo-[^3H]inositol. Labeled cells were distributed to assay tubes (500,000 cells/tube), and allowed to incubate for 15 min at 37°C. […] In all cases, the reaction was allowed to proceed in the presence of 10 mM LiCl for 1 h at 37°C after the addition of agonist before being stopped with chloroform/methanol (2∶1) and centrifuged (450×g; 15 min).
# Alternatively, cells were grown in 24-well plates and loaded with myo-[^3H]inositol as described above. […] In all cases, the reaction was stopped with 0.3 M HClO4, neutralized with 0.15 M K2CO3, and samples were centrifuged (1500×g; 15 min).
# (§2) For all experiments, [^14C]inositol-1-phosphate was added to each sample as an internal recovery standard. Total inositol phosphates were separated by ion exchange chromatography (AG1-X8 resin). The amount of radioactivity (disintegrations per minute) in each sample was determined by liquid scintillation spectrometry and adjusted for ^14C recovery.
# (§3) In functional assays of PI hydrolysis, raw data were corrected for ^14C recovery to account for individual column differences in efficiency. Individual concentration-response curve data were fitted to a four-parameter logistic function using Prism to obtain estimates of EC50 (half-effective concentration) and Emax.
# [3] = target: T2, rat M1 mutant^123 muscarinic acetylcholine receptor (Rattus norvegicus, UniProt P08482); settings: mutant^123 cells stimulated with agonist (data not shown)
# T2 sequence (P08482 1-460): T1 sequence (P11229 1-460) with A5V, T254S, P309S, R320K, A337G, I413V
# Protocol: as §1, §2, §3
# [4] = target: T3, rat M1 wild-type muscarinic acetylcholine receptor (Rattus norvegicus, UniProt P08482); settings: naïve CHO rM1 cells
# T3 sequence (P08482 1-460): T1 sequence (P11229 1-460) with A5V, T254S, P309S, R320K, A337G, I413V
# Protocol: as §1, §2, §3
# [5] = target: T3, rat M1 wild-type muscarinic acetylcholine receptor
# [6] = target: T2, rat M1 mutant^123 muscarinic acetylcholine receptor
# [7] = target: T3, rat M1 wild-type muscarinic acetylcholine receptor; settings: washout, control 2200±90
# [8] = target: T2, rat M1 mutant^123 muscarinic acetylcholine receptor; settings: washout, control 2700±300
# [9] = 1 h pretreatment, washout, 23 h wait
compound,measurement,setting,value
C[N+](C)(C)CCOC(N)=O [carbachol],maximal decrease in protein content,"[1]; 24-h pretreatment, at 10 mM carbachol",26±6.6%
O=C1CCCN1CC#CCN1CCCC1 [oxotremorine],"Emax, maximal accumulation of inositol phosphates",[2],10000±800 dpm
same,increase in the EC50 of agonist-stimulated PI hydrolysis,[2],32 fold
same,EC50,[2]; pEC50 of PI hydrolysis,200 nM
"CCCCCCOc1nsnc1C1=CCCN(C)C1 [xanomeline, 3-[3-hexyloxy-1,2,5-thiadiazo-4-yl]-1,2,5,6-tetrahydro-1-methylpyridine]",PI response,[3],did not produce a significant PI response
same,"Emax, maximal response",[4],18000±5500 dpm
same,maximal decrease in protein content,"[1]; 1-h pretreatment followed by washing and prolonged waiting, at 10 µM xanomeline",32±2%
same,maximal decrease in protein content,"[1]; 24-h pretreatment, at 10 µM xanomeline",65±7%
same,"Imax, maximal percentage inhibition of [3H]NMS binding","[5]; 1 h pretreatment, washout",95±0.5%
same,"Imax, maximal percentage inhibition of [3H]NMS binding",[5]; [9],99±2.3%
same,percentage of high-affinity binding sites,[5]; [9],74±1.1%
same,"Imax, maximal percentage inhibition of [3H]NMS binding","[5]; 24 h pretreatment, washout",97±0.5%
same,percentage of high-affinity binding sites,"[5]; 24 h pretreatment, washout",47±7.7%
same,"Imax, maximal percentage inhibition of [3H]NMS binding",[5]; Control: naïve cells,99±0.6%
same,"Imax, maximal percentage inhibition of [3H]NMS binding","[6]; 1 h pretreatment, washout",96±0.7%
same,"Imax, maximal percentage inhibition of [3H]NMS binding",[6]; [9],60±7.4 %
same,"Imax, maximal percentage inhibition of [3H]NMS binding","[6]; 24 h pretreatment, washout",90±2.9%
same,"Imax, maximal percentage inhibition of [3H]NMS binding",[6]; Control: naïve cells,99±0.5%
same,"Bmax, maximal cell-surface receptor density","[7]; 3 µM xanomeline 1 h, 23 h wait","1100±150 dpm/100,000 cells"
same,"Bmax, maximal cell-surface receptor density",[7]; 3 µM xanomeline 1 h,"2600±430 dpm/100,000 cells"
same,"Bmax, maximal cell-surface receptor density",[7]; 3 µM xanomeline 24 h,"1300±150 dpm/100,000 cells"
same,"Bmax, maximal cell-surface receptor density","[8]; 3 µM xanomeline 1 h, 23 h wait","3400±610 dpm/100,000 cells"
same,"Bmax, maximal cell-surface receptor density",[8]; 3 µM xanomeline 1 h,"3000±380 dpm/100,000 cells"
same,"Bmax, maximal cell-surface receptor density",[8]; 3 µM xanomeline 24 h,"3600±320 dpm/100,000 cells"
